The values below come from patent US8501911B2, “Methods of reducing inflammation and mucus hypersecretion” (Biomarck Pharmaceuticals, Ltd, priority 1999, dated 2013).

One assay deals with HL-60 clone 15 cells. Nature of the assay: Inhibition of eosinophil peroxidase (EPO) release from HL-60 clone 15 cells. The class given is cell-based, human. To be noted: at 50 μM of test peptide; 100 nM PMA 2 hours. From the text: The human promyelocytic cell line (Fischkoff S A, Graded increase in probability of eosinophilic differentiation of HL-60 promyelocytic leukemia cells induced by culture under alkaline conditions. Leuk. Res., 12:679-686, 1988; Rosenberg H F, Ackerman S J, Tenen D G. Human eosinophil cationic protein: molecular cloning of a cytotoxin and helminthotoxin with ribonuclease activity. J. Exp. Med., 170:163-176, 1989), HL-60 clone 15, is eosinophil-like promyelocytic human cell line which was purchased from American Type Culture Collection (ATCC) Rockville, Md. (catalog #CRL-1964). The cells were maintained in medium consisting of RPMI 1640 with glutamine supplemented with 10% heat inactivated fetal bovine serum (Gibco, Carlsbad, Calif.), 50 IU/mL penicillin, 50 μg/mL streptomycin, and 25 mM HEPES buffer, pH 7.8 at 37° C. in an atmosphere containing 5% CO2. Final differentiation of an eosinophil-like phenotype was initiated by culturing the cells at 5×10^5 cells/mL in the above medium containing 0.5 mM butyric acid (Sigma-Aldrich) for 5 days as previously described by Tiffany H L, Li F, and Rosenberg H F, Hyperglycosylation of eosinophil ribonuclease in a promyelocytic leukemia cell line and in differentiated peripheral blood progenitor cells J. Leukoc. Biol. 58: 49-54, 1995; and by Tiffany H L, Alkhatib G, Combadiere C, Berger E A, and Murphy P M., CC Chemokine receptors are differentially regulated by IL-5 during maturation of eosinophilic HL-60 cells. J. Immunol. 160:1385-1392, 1998. The cells were washed and resuspended at 2.5×10^6 per mL in phenol free RPMI-1640 (Cellgro; Mediatech Inc.). Aliquots of cells in 15 mL plastic tubes were preincubated with indicated concentration of test peptide (dissolved in PBS, pH 7.0) for 10 minutes followed by treatment of the cells with 100 nM PMA for 2 hours. The reaction was terminated by placing the tubes on ice and centrifugation of cells at 400 g for 5 min at 4° C. The eosinophil peroxidase (EPO) activity released by HL-60 clone 15 cells was assayed using TMB according to a previously established technique Paige et al (see above) and by Lacy P, Mahmudi-Azer S, Bablitz B, Hagen S C, Velazquez J R, Man S F, Moqbel R. Rapid mobilization of intracellularly stored RANTES in response to interferon-gamma in human eosinophils. Blood 94:23-32, 1999. Briefly, add 50 μL aliquots of the supernatant to 96-well microtiter plate followed by addition of 100 μL of the tetramethylbenzidine (TMB) substrate solution and incubate at room temperature for 15 minutes. The reaction was terminated by addition of 50 μL of 1.0 M sulfuric acid and absorbance was read at 450 nm in a spectrophotometric microplate reader (Molecular Devices, Sunnyvale, Calif.). The amount of secreted EPO was expressed as percentage of total content using the amount obtained in the same number of triton X-100-lysed cells.
Because standard EPO from HL-60 clone 15 cells was not available to use for quantification, we measured both released and intracellular (from lysed cells) levels of EPO, and expressed the released EPO as a percentage of total (intracellular and released) for each. To measure intracellular EPO in HL-60 clone 15 cells, appropriate aliquots of 0.1% triton X-100-lysed cells were taken for quantification of intracellular EPO as described above. All data are expressed as percentage of control to minimize variability between cultures.

Another assay relates to NHBE cells. Nature of the assay: Mucin secretion from NHBE cells exposed to kinase activators/reagents alone (ELISA). The class given is cell-based, human. The following applies: for Mucin secretion as percent of control: 15 min. On the procedure:
To determine the potential role of PKC and/or PKG in the mucin secretory process, NHBE cells were exposed to the following two specific protein kinase activators: the phorbol ester, phorbol 12-myristate 13-acetate (PMA), for activation of PKC, and the nonhydrolyzable cGMP analogue, 8-Br-cGMP, for activation of PKG.
NHBE Cell Culture—Expansion, cryopreservation, and culture of NHBE cells in the air/liquid interface were performed as described previously. See, Krunkosky et al. Briefly, NHBE cells (Clonetics, San Diego, Calif.) were seeded in vented T75 tissue culture flasks (500 cells/cm^2) and cultured until cells reached 75-80% confluence. Cells were then dissociated by trypsin/EDTA and frozen as passage-2. Air/liquid interface culture was initiated by seeding passage-2 cells (2×10^4 cells/cm^2) in […]® clear culture inserts (Costar, Cambridge, Mass.) that were thinly coated with rat tail collagen, type 1 (Collaborative Biomedical, Bedford, Mass.). Cells were cultured submerged in medium in a humidified 95% air, 5% CO2 environment for 5-7 days until nearly confluent. At that time, the air/liquid interface was created by removing the apical medium and feeding cells basalaterally. Medium was renewed daily thereafter. Cells were cultured for an additional 14 days to allow for full differentiation.
Measurement of Mucin Secretion by ELISA—Before collection of “base line” and “test” mucin samples, the accumulated mucus at the apical surface of the cells was removed by washing with phosphate-buffered saline, pH 7.2. To collect the base-line secretion, cells were incubated with medium alone, and secreted mucin in the apical medium was collected and reserved. Cells were rested for 24 h and then exposed to medium containing the selected stimulatory and/or inhibitory reagents (or appropriate controls), after which secreted mucin was collected and reserved as the test sample. Incubation times for the base line and the test were the same but varied depending on the test reagent utilized. Both base line and test secretions were analyzed by ELISA using an antibody capture method as known in the art. See, e.g., Harlow et al., Antibodies: A Laboratory Manual, pp. 570-573, Cold Spring Harbor Laboratory, Cold Spring Harbor, N.Y. (1988). The primary antibody for this assay was 17Q2 (Babco, Richmond, Calif.), a monoclonal antibody that reacts specifically with a carbohydrate epitope on human airway mucins. […] Wright et al., Am. J. Physiol. 271, L854-L861 (1996). Levels of mucin secretion were reported as percentage of the medium control.
Mucus secreted from the airway epithelial cells in vitro after stimulation by activators was assessed using an ELISA (antibody capture method) (E. Harlow, D. Lane. “Antibodies: A Laboratory Manual.” New York: Cold Spring Harbor Laboratory Press, 1988), wherein the collected mucus is bound directly to the ELISA plate. Mucus was detected using an antibody raised against monkey airway mucus (Lin et al. Am J Respir Cell Mol Biol 1:41, 1989).
(In general: An ELISA detects its analyte on a solid surface through an enzyme-linked reagent.)

“And” between values parts separate entries of the source, which are not always exact repeats. Equal values may be shown once. Residues, ends and D or L forms follow the SMILES beside them. *: point of attachment. Myristoyl = CCCCCCCCCCCCCC(=O)*

On to `CCCCCCCCCCCCCC(=O)NCC(=O)N[C@@H](C)C(=O)N[C@@H](CCC(N)=O)C(=O)N[C@@H](Cc1ccccc1)C(=O)N[C@@H](CO)C(=O)N[C@@H](CCCCN)C(=O)N[C@H](C(=O)N[C@@H](C)C(=O)N[C@@H](C)C(=O)N[C@@H](CCCCN)C(=O)NCC(=O)N[C@@H](CCC(=O)O)C(=O)O)[C@@H](C)O` [SEQ ID NO: 13, N-myristoyl-GAQFSKTAAKGE] (Myristoyl-GAQFSKTAAKGE-OH; C-terminus assumed), for which, in the assay on HL-60 clone 15 cells, the “% Inhibition EPO” value was 25.2%.
Turning to `Nc1nc2c(nc(Br)n2[C@@H]2O[C@@H]3COP(=O)(O)O[C@H]3[C@H]2O)c(=O)[nH]1` [8-Br-cGMP], the “Mucin secretion as percent of control” value with NHBE cells (reagent 1 μM alone) was 109%.
As for `CCCCCCCCCCCCCC(=O)O[C@@H]1[C@@H](C)[C@@]2(O)[C@@H](C=C(CO)C[C@]3(O)C(=O)C(C)=C[C@@H]23)[C@@H]2C(C)(C)[C@]12OC(C)=O` [PMA, phorbol 12-myristate 13-acetate], the “Mucin secretion as percent of control” value in the assay with NHBE cells (reagent 100 nM alone) is 123% and 122%. Further, in the assay with NHBE cells (various concentrations and times, up to 1 μM for 2 h), the “Mucin secretion in response to PMA alone” value is listed as “did not induce significant mucin secretion”.
For `CCCCCCCCCCCCCC(=O)NCC(=O)N[C@@H](C)C(=O)N[C@@H](CCC(N)=O)C(=O)N[C@@H](Cc1ccccc1)C(=O)N[C@@H](CO)C(=O)N[C@@H](CCCCN)C(=O)N[C@H](C(=O)N[C@@H](C)C(=O)N[C@@H](C)C(=O)N[C@@H](CCCCN)C(=O)NCC(=O)N[C@@H](CCC(=O)O)C(=O)N[C@@H](C)C(=O)N[C@@H](C)C(=O)N[C@@H](C)C(=O)N[C@@H](CCC(=O)O)C(=O)N[C@@H](CCCNC(=N)N)C(=O)N1CCC[C@H]1C(=O)NCC(=O)N[C@@H](CCC(=O)O)C(=O)N[C@@H](C)C(=O)N[C@@H](C)C(=O)N[C@H](C(=O)N[C@@H](C)C(=O)O)C(C)C)[C@@H](C)O` [MANS peptide] (Myristoyl-GAQFSKTAAKGEAAAERPGEAAVA-OH; C-terminus assumed), the “% Inhibition EPO” value with HL-60 clone 15 cells worked out at 46.1%.
For `CCCCCCCCCCCCCC(=O)NCC(=O)N[C@H](C(=O)N[C@@H](C)C(=O)N1CCC[C@H]1C(=O)N[C@@H](C)C(=O)N[C@@H](C)C(=O)N[C@@H](CCC(=O)O)C(=O)NCC(=O)N[C@@H](C)C(=O)NCC(=O)N[C@@H](C)C(=O)N[C@@H](CCC(=O)O)C(=O)N[C@H](C(=O)N[C@@H](CCCCN)C(=O)N[C@@H](CCCNC(=N)N)C(=O)N[C@@H](C)C(=O)N[C@@H](CO)C(=O)N[C@@H](C)C(=O)N[C@@H](CCC(=O)O)C(=O)N[C@@H](C)C(=O)N[C@@H](CCCCN)C(=O)N[C@@H](CCC(N)=O)C(=O)N[C@@H](C)C(=O)N[C@@H](Cc1ccccc1)C(=O)O)C(C)C)[C@@H](C)O` [RNS peptide, reference compound] (Myristoyl-GTAPAAEGAGAEVKRASAEAKQAF-OH; C-terminus assumed), in the assay on HL-60 clone 15 cells, the “% Inhibition EPO” value is 0%.
On to TNF-α, for which the “Mucin secretion level, % of control” value in the assay on NHBE cells (TNF-α 10 ng/ml 4 h, no secretagogue) was 109%.
For the compound `CCCCCCCCCCCCCC(=O)NCC(=O)N[C@@H](C)C(=O)N[C@@H](CCC(N)=O)C(=O)N[C@@H](Cc1ccccc1)C(=O)N[C@@H](CO)C(=O)N[C@@H](CCCCN)C(=O)N[C@H](C(=O)N[C@@H](C)C(=O)N[C@@H](C)C(=O)N[C@@H](CCCCN)C(=O)O)[C@@H](C)O` [SEQ ID NO: 15, N-myristoyl-GAQFSKTAAK] (Myristoyl-GAQFSKTAAK-OH; C-terminus assumed), the “% Inhibition EPO” value in the assay with HL-60 clone 15 cells came out at 37.4%.
